Results from patent US20260001928A1 (CORTERIA PHARMACEUTICALS, priority 2022, published 2026).
*1 amine or outer side, *2 acyl side, *3 side chain or, on linkers, in order; H or OH if unused. Where a SMILES comes first, the peptide text is derived from it. Side-chain parts run from the residue outwards. [ ]: non-standard residue; d: D form. The star is where a group is joined. C20 diacid = O=C(O)CCCCCCCCCCCCCCCCCCC(=O)*; C16 diacid = O=C(O)CCCCCCCCCCCCCCC(=O)*; γGlu = O=C(O)[C@H](CCC(=O)[*:2])N[*:1]; Decanoyl = CCCCCCCCCC(=O)*; Nva = CCC[C@H](N)C(=O)O; Aib = CC(C)(N)C(=O)O

Columns and labels:
CFR1R receptor = target: T1, CFR1R receptor (Homo sapiens, UniProt P34998); assay: Activity at anti-target CFR1R receptor, cAMP assay in CRF1R-overexpression CHO-K1 cells; assay type: cell-based; details: 100% = Sauvagine at 100 nM; for EC50: cAMP
T1 construct: host or cells: CHO-K1 (clone 2)
T1 sequence (P34998 24-415): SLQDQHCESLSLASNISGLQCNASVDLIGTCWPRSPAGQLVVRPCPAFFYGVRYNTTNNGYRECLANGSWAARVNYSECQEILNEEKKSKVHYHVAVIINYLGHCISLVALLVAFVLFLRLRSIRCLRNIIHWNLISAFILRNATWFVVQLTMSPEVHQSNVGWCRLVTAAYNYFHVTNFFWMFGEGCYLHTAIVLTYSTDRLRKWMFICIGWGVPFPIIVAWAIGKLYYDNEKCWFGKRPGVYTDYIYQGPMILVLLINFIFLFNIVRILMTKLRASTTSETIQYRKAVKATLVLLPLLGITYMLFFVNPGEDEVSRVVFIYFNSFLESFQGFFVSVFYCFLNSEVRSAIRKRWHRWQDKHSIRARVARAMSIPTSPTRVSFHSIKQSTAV
How it was run: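 cAMP readout in CRF1R-overexpressing CHO-K1 cells (clone 2), run as for the TeloHAEC assay at 4000 cells/well final. Cells came from cryopreserved banks. Sauvagine at 100 nM defined 100% activation.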

Sprague Dawley rats = assay: Effect on systolic blood pressure, telemetry in Sprague Dawley rats; assay type: in vivo, rat; details: 0.1 mg/kg SC; for Systolic blood pressure (Mean) % change from baseline, 8 h / Systolic blood pressure (Mean) % change from baseline, 12 h / Systolic blood pressure (Mean) % change from baseline, 24 h: n=2; for Duration of action: last time point with an effect on BP still observed
Experimental: The effect of the compounds on systolic blood pressure was determined in telemetry studies in Sprague Dawley rats at a dosage of 0.1 mg/kg SC.
The rats were previously implanted with a telemetry device (DSI, Saint-Paul, USA, HD-S10, HD-S11 or HD S21) and allowed to recover for a minimum period of 2 weeks before treatment with vehicle or the different peptides. Blood pressure (BP) was recorded through a catheter inserted into the abdominal aorta. The device body was placed in the abdomen. The animals were allowed to recover from surgery for at least 10 days before the first administration of test drug or vehicle.
The chronically instrumented rats of the telemetry studies were individually housed immediately after surgery and then housed in pairs with a non-instrumented companion after recovery.
Systolic blood pressure was recorded for one hour before treatment (basal period). Thereafter, the subcutaneous administration of the test compound or its vehicle was performed, under continuous recording of the signal up to 48 hours, analysed and expressed as % change from baseline.
Representative data are presented in Table 13 below, in which “Duration of action” indicates the last time point for which an effect on BP was still observed (n=2 animals/peptide)

human CRF2a receptor = target: T2, human CRF2a receptor (Homo sapiens, UniProt Q13324); assay: Activity at human CRF2a receptor, cAMP functional assay in TeloHEAC cells; assay type: cell-based; details: TeloHEAC cells stably expressing human CRF2a receptor, relative to urocortin 2 (100 nM = 100%)
T2 construct: expressed in transfected cells; host or cells: TeloHEAC cells
T2 sequence (Q13324 1-411): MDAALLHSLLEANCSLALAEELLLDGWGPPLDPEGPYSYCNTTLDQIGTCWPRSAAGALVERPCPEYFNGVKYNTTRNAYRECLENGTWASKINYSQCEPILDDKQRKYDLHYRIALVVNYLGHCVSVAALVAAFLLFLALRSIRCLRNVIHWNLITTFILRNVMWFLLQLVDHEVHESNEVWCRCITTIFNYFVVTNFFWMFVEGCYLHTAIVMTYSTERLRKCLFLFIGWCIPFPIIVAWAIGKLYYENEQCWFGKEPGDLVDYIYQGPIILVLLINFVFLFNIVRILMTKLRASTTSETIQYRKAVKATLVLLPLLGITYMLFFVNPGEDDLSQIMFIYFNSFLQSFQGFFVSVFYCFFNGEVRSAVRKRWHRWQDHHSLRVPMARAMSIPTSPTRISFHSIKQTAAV
How it was run: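 TeloHEAC cells stably expressing human CRF2a (10000 cells/well) were treated with 16-point 1:2 compound dilutions in HBSS/20 mM HEPES with IBMX for 30 min at 37° C. cAMP was read by HTRF (665/620 nm ratio). EC50 was the concentration giving 50% activation, with 100 nM urocortin 2 set as 100%.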

| Emax (% I) (CFR1R receptor; listed as 10) | EC50 (human CRF2a receptor) [nM] | Emax (% I) (CFR1R receptor) | EC50 (CFR1R receptor) [nM] | Structure (SMILES) | Systolic blood pressure (Mean) % change from baseline, 8 h (Sprague Dawley rats) [%] | Systolic blood pressure (Mean) % change from baseline, 12 h (Sprague Dawley rats) [%] | Systolic blood pressure (Mean) % change from baseline, 24 h (Sprague Dawley rats) [%] | Duration of action (Sprague Dawley rats) [h] |
| --- | --- | --- | --- | --- | --- | --- | --- | --- |
| 26 | – | – | – | CC[C@H](C)[C@H](NC(C)=O)C(=O)N[C@H](C(=O)N[C@@H](CC(C)C)C(=O)N[C@@H](CO)C(=O)N[C@@H](CC(C)C)C(=O)N[C@@H](CC(=O)O)C(=O)N[C@@H](C(=O)N1CCC[C@H]1C(=O)N[C@H](C(=O)N[C@@H](CCCCN)C(=O)N[C@@H](CC(C)C)C(=O)N[C@@H](CCCCNC(=O)CC[C@H](NC(=O)CCCCCCCCCCCCCCC(=O)O)C(=O)O)C(=O)N[C@@H](CCCCN)C(=O)N[C@H](C(=O)N[C@@H](CC(C)C)C(=O)N[C@@H](CC(C)C)C(=O)N[C@@H](CCC(=O)O)C(=O)N[C@@H](CCC(N)=O)C(=O)N[C@@H](CCC(=O)O)C(=O)N[C@@H](CCCCN)C(=O)N[C@@H](CCC(N)=O)C(=O)N[C@@H](CCCCN)C(=O)N[C@@H](CCCCN)C(=O)N[C@@H](CCC(N)=O)C(=O)N[C@@H](CCCNC(=N)N)C(=O)N[C@@H](CCC(=O)O)C(=O)N[C@@H](CCC(N)=O)C(=O)N[C@@H](C)C(=O)N[C@@H](CCC(=O)O)C(=O)N[C@H](C(=O)N[C@@H](CC(N)=O)C(=O)N[C@@H](CCC(=O)O)C(=O)N[C@@H](CCC(N)=O)C(=O)N[C@H](C(=O)N[C@@H](CC(C)C)C(=O)N[C@@H](C)C(=O)N[C@@H](CCC(N)=O)C(=O)N[C@H](C(N)=O)C(C)C)[C@@H](C)CC)[C@@H](C)O)[C@@H](C)CC)[C@@H](C)CC)C(C)C)C(C)C [SEQ ID No. 56, reference compound] (Ac-IVLSLD[dV]PIKLK([γGlu-C16 diacid])KILLEQEKQKKQREQAETNEQILAQV-NH2) | −24 | −11 | 2 | 18 |
| – | 0.17 | 7 | > 250 | CCC[C@H](NC(=O)[C@H](CC(N)=O)NC(=O)[C@@H](NC(=O)[C@H](CCC(=O)O)NC(=O)[C@H](C)NC(=O)[C@H](CCC(N)=O)NC(=O)[C@H](CCC(=O)O)NC(=O)[C@H](CCCNC(=N)N)NC(=O)[C@H](CCC(N)=O)NC(=O)[C@H](CCCCN)NC(=O)[C@H](CCCCN)NC(=O)[C@H](CCC(N)=O)NC(=O)[C@H](CCCCN)NC(=O)[C@H](CCC(=O)O)NC(=O)[C@H](CCC(N)=O)NC(=O)[C@H](CCC(=O)O)NC(=O)[C@H](CC(C)C)NC(=O)[C@H](CC(C)C)NC(=O)[C@@H](NC(=O)[C@H](CCCCN)NC(=O)[C@H](CCCCNC(=O)CC[C@H](NC(=O)CCCCCCCCCCCCCCC(=O)O)C(=O)O)NC(=O)[C@H](CC(C)C)NC(=O)[C@H](CCCCN)NC(=O)[C@@H](NC(=O)[C@@H]1CCCN1C(=O)[C@H](NC(=O)[C@H](CC(=O)O)NC(=O)[C@H](CC(C)C)NC(=O)[C@H](CO)NC(=O)[C@H](CC(C)C)NC(=O)[C@@H](NC(=O)[C@@H](NC(C)=O)[C@@H](C)CC)C(C)C)C(C)C)[C@@H](C)CC)[C@@H](C)CC)[C@@H](C)O)C(=O)N[C@@H](CCC(N)=O)C(=O)N[C@H](C(=O)N[C@@H](CC(C)C)C(=O)N[C@@H](C)C(=O)N[C@@H](CCC(N)=O)C(=O)N[C@H](C(N)=O)C(C)C)[C@@H](C)CC [compound 52] (Ac-IVLSLD[dV]PIKLK([γGlu-C16 diacid])KILLEQEKQKKQREQAETN[Nva]QILAQV-NH2) | −28 | −17 | 4 | 23 |
| – | 0.04 | 54 | – | CCCCCCCCCC(=O)N[C@H](C(=O)N[C@@H](CC(C)C)C(=O)N[C@@H](CO)C(=O)N[C@@H](CC(C)C)C(=O)N[C@@H](CC(=O)O)C(=O)N[C@@H](C(=O)N1CCC[C@H]1C(=O)N[C@H](C(=O)N[C@@H](CCCCN)C(=O)N[C@@H](CC(C)C)C(=O)N[C@@H](CCCCNC(=O)CC[C@H](NC(=O)CCCCCCCCCCCCCCC(=O)O)C(=O)O)C(=O)N[C@@H](CCCCN)C(=O)N[C@H](C(=O)N[C@@H](CC(C)C)C(=O)N[C@@H](CC(C)C)C(=O)N[C@@H](CCC(=O)O)C(=O)N[C@@H](CCC(N)=O)C(=O)N[C@@H](CCC(=O)O)C(=O)N[C@@H](CCCCN)C(=O)N[C@@H](CCC(N)=O)C(=O)N[C@@H](CCCCN)C(=O)N[C@@H](CCCCN)C(=O)N[C@@H](CCC(N)=O)C(=O)N[C@@H](CCCNC(=N)N)C(=O)N[C@@H](CCC(=O)O)C(=O)N[C@@H](CCC(N)=O)C(=O)N[C@@H](C)C(=O)N[C@@H](CCC(=O)O)C(=O)N[C@H](C(=O)N[C@@H](CC(N)=O)C(=O)NC(C)(C)C(=O)N[C@@H](CCC(N)=O)C(=O)N[C@H](C(=O)N[C@@H](CC(C)C)C(=O)N[C@@H](C)C(=O)N[C@@H](CCC(N)=O)C(=O)N[C@H](C(N)=O)C(C)C)[C@@H](C)CC)[C@@H](C)O)[C@@H](C)CC)[C@@H](C)CC)C(C)C)C(C)C [compound 158] (Decanoyl-VLSLD[dV]PIKLK([γGlu-C16 diacid])KILLEQEKQKKQREQAETN[Aib]QILAQV-NH2) | −11 | −7 | 3 | 23 |
| – | 0.28 | 8 | > 250 | CC[C@H](C)[C@H](NC(C)=O)C(=O)N[C@H](C(=O)N[C@@H](CC(C)C)C(=O)N[C@@H](CO)C(=O)N[C@@H](CC(C)C)C(=O)N[C@@H](CC(=O)O)C(=O)N[C@@H](C(=O)N1CCC[C@H]1C(=O)N[C@H](C(=O)N[C@@H](CCCCN)C(=O)N[C@@H](CC(C)C)C(=O)N[C@@H](CCCCNC(=O)CC[C@H](NC(=O)CC[C@H](NC(=O)CCCCCCCCCCCCCCCCCCC(=O)O)C(=O)O)C(=O)O)C(=O)N[C@@H](CCCCN)C(=O)N[C@H](C(=O)N[C@@H](CC(C)C)C(=O)N[C@@H](CC(C)C)C(=O)N[C@@H](CCC(=O)O)C(=O)N[C@@H](CCC(N)=O)C(=O)N[C@@H](CCC(=O)O)C(=O)N[C@@H](CCCCN)C(=O)N[C@@H](CCC(N)=O)C(=O)N[C@@H](CCCCN)C(=O)N[C@@H](C)C(=O)N[C@@H](CCC(N)=O)C(=O)N[C@@H](CCCNC(=N)N)C(=O)N[C@@H](CCC(=O)O)C(=O)N[C@@H](CCC(N)=O)C(=O)N[C@@H](C)C(=O)N[C@@H](CCC(=O)O)C(=O)N[C@H](C(=O)N[C@@H](CC(N)=O)C(=O)NC(C)(C)C(=O)N[C@@H](CCC(N)=O)C(=O)N[C@H](C(=O)N[C@@H](CC(C)C)C(=O)N[C@@H](C)C(=O)N[C@@H](CCC(N)=O)C(=O)N[C@H](C(N)=O)C(C)C)[C@@H](C)CC)[C@@H](C)O)[C@@H](C)CC)[C@@H](C)CC)C(C)C)C(C)C [compound 244] (Ac-IVLSLD[dV]PIKLK([γGlu-γGlu-C20 diacid])KILLEQEKQKAQREQAETN[Aib]QILAQV-NH2) | – | – | – | – |
